Test results: patent US11976075B2, “Inhibitors of the MYST family of lysine acetyl transferases” (Isosterix, Inc., priority 2022, dated 2024)
Like-named read-outs stand apart in the source and are kept apart here.

Target: T1, Recombinant KAT6A/MOZ (488-778) protein (Homo sapiens, UniProt Q92794)
T1 construct: Recombinant KAT6A/MOZ (488-778) protein (Active motif, Catalog #81223); purchased Active Motif 81223
Test: Kat6a AlphaLISA Inhibition Screening Assay
Assay type: biochemical
Procedure: The Kat6a inhibitory activity of test compounds was determined using an Alpha Screen-based detection method. The assay reactions were conducted in a volume of 10 μL in Alpha Plate, White 384 well plate (cat #6008280, Perkin Elmer). The enzymatic reactions were performed in assay buffer pH 8.0 (50 mM Tris-HCl, 0.1 mM EDTA, 0.01% Tween-20, 1 mM Dithiothreitol, 0.1% BSA (fatty acid free) and 330 nM TSA (Trichostatin A)). 10 μL reaction volume consisting of 25 nM of Recombinant KAT6A/MOZ (488-778) protein (Active motif, Catalog #81223), 400 nM Acetyl coenzyme A (Catalog #A2056, Sigma), 200 nM of Histone H3 peptide [(amino acids 1-21), biotin-labeled (BPS Biosciences, Catalog #52011,)] and a 10-point dose response curve for test/tool compounds were prepared. Enzyme and compounds solution were pre-incubated in assay plate for 60 or 10 min at room temperature then substrate and Acetyl coenzyme A solution were added to the plate. After addition, the plate was sealed with adhesive seals and incubated for 120 minutes at room temperature.
After 120 minutes of incubation, 5 μL (10 μg/mL) of AlphaLISA anti-acetyl-Lysine acceptor beads (Perkin Elmer, Catalog #AL143C) were added to the plate and it was incubated for 60 minutes at room temperature. Then 10 μL (10 μg/mL) of Alpha Streptavidin donor beads (Perkin Elmer, Catalog #6760002S) were added to the plate which was further incubated for 60 minutes at room temperature. After incubation, the alpha signal was recorded by using Perkin Elmer Envision multi-mode reader.
NA means the compound was not active at the concentration tested. […] NT means not tested.

[1] = 60′ pre-incubation, Table 2, read-out: Kat6A biochemical assay: IC50
[2] = 60′ pre-incubation, Table 3, read-out: Kat6A Biochemical assay: IC50
[3] = 10′ pre-incubation, Table 3, read-out: Kat6A Biochemical assay: IC50
[4] = 10′ pre-incubation, Table 2, read-out: Kat6A biochemical assay: IC50

T1 sequence (Q92794 488-778): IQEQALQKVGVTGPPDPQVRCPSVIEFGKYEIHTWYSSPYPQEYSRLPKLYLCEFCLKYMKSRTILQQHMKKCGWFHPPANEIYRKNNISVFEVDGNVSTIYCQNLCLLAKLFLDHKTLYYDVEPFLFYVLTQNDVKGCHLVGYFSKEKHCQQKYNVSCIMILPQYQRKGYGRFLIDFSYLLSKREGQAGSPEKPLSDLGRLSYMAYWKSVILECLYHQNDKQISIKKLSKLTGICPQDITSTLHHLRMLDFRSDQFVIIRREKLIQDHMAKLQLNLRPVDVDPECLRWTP

| IC50 [1] | IC50 [2] | SMILES | also measured |
| --- | --- | --- | --- |
| ≤ 10 µM |  | C#CC(=O)NCc1cnn(Cc2cc(OC)c3c(NS(=O)(=O)c4c(OC)cccc4OC)noc3c2)c1 [Synthetic Example 34, N-((1-((3-((2,6-dimethoxyphenyl)sulfonamido)-4-methoxybenzo[d]isoxazol-6-yl)methyl)-1H-pyrazol-4-yl)methyl)propiolamide] |  |
|  | ≤ 10 µM | COc1ccccc1S(=O)(=O)Nc1noc2cc(Cn3cc(CNS(=O)(=O)c4ccc(Cl)nc4)cn3)cc(OC)c12 [compound 83, 6-chloro-N-((1-((4-methoxy-3-((2-methoxyphenyl)sulfonamido)benzo[d]isoxazol-6-yl)methyl)-1H-pyrazol-4-yl)methyl)pyridine-3-sulfonamide] |  |
| ≤ 10 µM |  | C=CS(=O)(=O)NCc1ccn(Cc2cc(OC)c3c(NS(=O)(=O)c4ccccc4F)noc3c2)n1 [Synthetic Example 17, 2-fluoro-N-(4-methoxy-6-((3-(vinylsulfonamidomethyl)-1H-pyrazol-1-yl)methyl)benzo[d]isoxazol-3-yl)benzenesulfonamide] |  |
| ≤ 10 µM |  | CC#CC(=O)NCc1cnn(Cc2cc(OC)c3c(NS(=O)(=O)c4ccccc4OC)noc3c2)c1 [Synthetic Example 57, N-[[1-[[4-methoxy-3-[(2-methoxyphenyl)sulfonylamino]-1,2-benzoxazol-6-yl]methyl]pyrazol-4-yl]methyl] but-2-ynamide] |  |
| ≤ 10 µM |  | C=CC(=O)NCC(=O)NCc1cnn(Cc2cc(OC)c3c(NS(=O)(=O)c4ccccc4OC)noc3c2)c1 [Synthetic Example 61, N-[2-[[1-[[4-methoxy-3-[(2-methoxyphenyl)sulfonylamino]-1,2-benzoxazol-6-yl]methyl]pyrazol-4-yl]methylamino]-2-oxo-ethyl]prop-2-enamide] |  |
| ≤ 10 µM |  | C=CC(=O)N1CCN(c2cccc(-c3cc(OC)c4c(NS(=O)(=O)c5c(OC)cccc5OC)noc4c3)c2)CC1 [Synthetic Example 56, N-(6-(3-(4-acryloylpiperazin-1-yl)phenyl)-4-methoxybenzo[d]isoxazol-3-yl)-2,6-dimethoxybenzenesulfonamide] |  |
| ≤ 10 µM |  | C=CC(=O)N1C[C@H]2CN(Cc3cc(OC)c4c(NS(=O)(=O)c5ccccc5OC)noc4c3)C[C@H]2C1 [Synthetic Example 50, N-(6-(((3aR,6aS)-5-acryloylhexahydropyrrolo[3,4-c]pyrrol-2(1H)-yl)methyl)-4-methoxybenzo[d]isoxazol-3-yl)-2-methoxybenzenesulfonamide] |  |
|  | > 10 µM | C=CC(=O)N1CCC(c2ccccc2-c2cc(OC)c3c(NS(=O)(=O)c4c(OC)cccc4OC)noc3c2)C1 (centres unmarked) [compound 75, N-(6-(2-(1-acryloylpyrrolidin-3-yl)phenyl)-4-methoxybenzo[d]isoxazol-3-yl)-2,6-dimethoxybenzenesulfonamide] |  |
|  | ≤ 10 µM | C#CC(=O)N1CCN(C(=O)c2cnn(Cc3cc(OC)c4c(NS(=O)(=O)c5cc(CC)ccc5OC)noc4c3)c2)CC1 [compound 95, 5-ethyl-2-methoxy-N-(4-methoxy-6-((4-(4-propioloylpiperazine-1-carbonyl)-1H-pyrazol-1-yl)methyl)benzo[d]isoxazol-3-yl)benzenesulfonamide] |  |
|  | ≤ 10 µM | C=CS(=O)(=O)NC1CCN(Cc2cc(OC)c3c(NS(=O)(=O)c4ccccc4OC)noc3c2)CC1 [compound 77, 2-methoxy-N-(4-methoxy-6-((4-(vinylsulfonamido)piperidin-1-yl)methyl)benzo[d]isoxazol-3-yl)benzenesulfonamide] |  |
| ≤ 10 µM |  | COc1ccccc1S(=O)(=O)Nc1noc2cc(Cn3cc(C(=O)NCC#N)cn3)cc(OC)c12 [Synthetic Example 62, N-(cyanomethyl)-1-((4-methoxy-3-((2-methoxyphenyl)sulfonamido)benzo[d]isoxazol-6-yl)methyl)-1H-pyrazole-4-carboxamide] |  |
|  | ≤ 10 µM | C#CC(=O)NCCNC(=O)c1cnn(Cc2cc(OC)c3c(NS(=O)(=O)c4cc(CC)ccc4OC)noc3c2)c1 [compound 94, 1-((3-((5-ethyl-2-methoxyphenyl)sulfonamido)-4-methoxybenzo[d]isoxazol-6-yl)methyl)-N-(2-propiolamidoethyl)-1H-pyrazole-4-carboxamide] |  |
| ≤ 10 µM |  | C#CC(=O)NCc1cnn(Cc2cc(OC)c3c(NS(=O)(=O)c4ccc(C(=O)OC)cc4)noc3c2)c1 [Synthetic Example 38, methyl 4-(N-(4-methoxy-6-((4-(propiolamidomethyl)-1H-pyrazol-1-yl)methyl)benzo[d]isoxazol-3-yl)sulfamoyl)benzoate] |  |
| ≤ 10 µM |  | C#CC(=O)N(C)Cc1cnn(Cc2cc(OC)c3c(NS(=O)(=O)c4ccccc4OC)noc3c2)c1 [Synthetic Example 45, N-((1-((4-methoxy-3-((2-methoxyphenyl)sulfonamido)benzo[d]isoxazol-6-yl)methyl)-1H-pyrazol-4-yl)methyl)-N-methylpropiolamide] |  |
|  | ≤ 10 µM | C#CC(=O)N1CCN(c2cccc(-c3cc(OC)c4c(NS(=O)(=O)c5c(OC)cccc5OC)noc4c3)n2)CC1 [compound 96, 2,6-dimethoxy-N-(4-methoxy-6-(6-(4-propioloylpiperazin-1-yl)pyridin-2-yl)benzo[d]isoxazol-3-yl)benzenesulfonamide] |  |

More lines, now with the values behind:

| SMILES | IC50 [1] | IC50 [2] | also measured |
| --- | --- | --- | --- |
| C#CC(=O)N1CCN(c2cccc(-c3cc(OC)c4c(NS(=O)(=O)NC5CCCCC5)noc4c3)c2)CC1 [compound 111] |  | ≤ 10 µM |  |
| COc1cccc(OC)c1S(=O)(=O)Nc1n[nH]c2cc(Cn3cccn3)cc(OC)c12 [compound 125, N-(6-((1H-pyrazol-1-yl)methyl)-4-methoxy-1H-indazol-3-yl)-2,6-dimethoxybenzenesulfonamide] |  |  | IC50 [3]: ≤ 10 µM |
| COc1cc(Cn2cc3c(n2)CN(C(=O)C#CCN(C)C)C3)cc2onc(NS(=O)(=O)CC3CCCCC3)c12 [Synthetic Example 3, 1-cyclohexyl-N-(6-((5-(4-(dimethylamino)but-2-ynoyl)-5,6-dihydropyrrolo[3,4-c]pyrazol-2(4H)-yl)methyl)-4-methoxybenzo[d]isoxazol-3-yl)methanesulfonamide] | ≤ 10 µM |  |  |
| C#CC(=O)N1CCCN(c2cccc(-c3cc(OC)c4c(NS(=O)(=O)c5c(OC)cccc5OC)noc4c3)c2)CC1 [compound 100, 2,6-dimethoxy-N-(4-methoxy-6-(3-(4-propioloyl-1,4-diazepan-1-yl)phenyl)benzo[d]isoxazol-3-yl)benzenesulfonamide] |  | ≤ 10 µM |  |
| C#CC(=O)NCc1ccc2cc(C(=O)NS(=O)(=O)c3ccccc3F)oc2c1 [Synthetic Example 11, N-((2-fluorophenyl)sulfonyl)-6-(propiolamidomethyl)benzofuran-2-carboxamide] |  |  | IC50 [4]: 20 to 50 µM |
| C=CC(=O)NCc1ccc2cc(C(=O)NS(=O)(=O)c3ccccc3F)oc2c1 [Synthetic Example 10, 6-(acrylamidomethyl)-N-((2-fluorophenyl)sulfonyl)benzofuran-2-carboxamide] |  |  | IC50 [4]: ≤ 10 µM |
| C#CC(=O)N1CCN(c2cccc(-c3cc(OC)c4c(NS(=O)(=O)c5cc(CC)ccc5OC)noc4n3)c2)CC1 [compound 114, 25-ethyl-2-methoxy-N-(4-methoxy-6-(3-(4-propioloylpiperazin-1-yl)phenyl)isoxazolo[5,4-b]pyridin-3-yl)benzenesulfonamide] |  | > 10 µM |  |
| C#CC(=O)N1CCN(c2csc(-c3cc(OC)c4c(NS(=O)(=O)c5c(OC)cccc5OC)noc4c3)n2)CC1 [compound 118, 2,6-dimethoxy-N-(4-methoxy-6-(4-(4-propioloylpiperazin-1-yl)thiazol-2-yl)benzo[d]isoxazol-3-yl)benzenesulfonamide] |  | ≤ 10 µM |  |
| COc1cc(Cn2ccc(CN)n2)cc2onc(NS(=O)(=O)CC3CCCCC3)c12 [compound 128] |  |  | IC50 [3]: 20 to 50 µM |
| COc1cc(Cn2cccn2)cc2c1c(NS(=O)(=O)CC1CCCCC1)nn2C [compound 121, N-(6-((1H-pyrazol-1-yl)methyl)-4-methoxy-1-methyl-1H-indazol-3-yl)-1-cyclohexylmethanesulfonamide] |  |  | IC50 [3]: 10 to 20 µM |
| C=CS(=O)(=O)N1CCN(c2cccc(-c3cc(OC)c4c(NS(=O)(=O)c5c(OC)cccc5OC)noc4c3)c2)CC1 [compound 72, 2,6-dimethoxy-N-(4-methoxy-6-(3-(4-(vinylsulfonyl)piperazin-1-yl)phenyl)benzo[d]isoxazol-3-yl) benzenesulfonamide] |  | ≤ 10 µM |  |
| C#CC(=O)N1CCN(c2cccc(-c3cc(OC)c4c(NS(=O)(=O)CC5CCCCC5)noc4c3)c2)CC1 [compound 117, 1-cyclohexyl-N-(4-methoxy-6-(3-(4-propioloylpiperazin-1-yl)phenyl)benzo[d]isoxazol-3-yl) methanesulfonamide] |  | ≤ 10 µM |  |
| C=CC(=O)NCc1ccnc(-c2cc(C)cc(C(=O)NNS(=O)(=O)c3ccccc3F)c2)c1 [compound 12] |  |  | IC50 [4]: ≤ 10 µM |
| C#CC(=O)N1CCN(c2cccc(-c3cc(OC)c4c(NS(=O)(=O)c5cc(CC)ccc5OC)noc4c3)c2)CC1 [compound 98, 5-ethyl-2-methoxy-N-(4-methoxy-6-(3-(4-propioloylpiperazin-1-yl)phenyl)benzo[d]isoxazol-3-yl) benzenesulfonamide] |  | ≤ 10 µM |  |
